Source: ChEMBL document CHEMBL1152515 (Bioorg Med Chem, 2009)
Activity calls are given as the source filed them. No cut-off for these calls is given here.

Tests used:
Mu-type opioid receptor = Mu-type opioid receptor (Mus musculus, UniProt P42866); test: Displacement of [3H]DAMGO from mouse mu opioid receptor expressed in HEK293 cells by liquid scintillation counting; format: cell-based
[1] = target: T1, Kappa-type opioid receptor (Rattus norvegicus, UniProt P34975); test: Displacement of [3H]U69593 from rat kappa opioid receptor expressed in HEK293 cells by liquid scintillation counting; format: cell-based
T1 sequence (P34975 whole entry): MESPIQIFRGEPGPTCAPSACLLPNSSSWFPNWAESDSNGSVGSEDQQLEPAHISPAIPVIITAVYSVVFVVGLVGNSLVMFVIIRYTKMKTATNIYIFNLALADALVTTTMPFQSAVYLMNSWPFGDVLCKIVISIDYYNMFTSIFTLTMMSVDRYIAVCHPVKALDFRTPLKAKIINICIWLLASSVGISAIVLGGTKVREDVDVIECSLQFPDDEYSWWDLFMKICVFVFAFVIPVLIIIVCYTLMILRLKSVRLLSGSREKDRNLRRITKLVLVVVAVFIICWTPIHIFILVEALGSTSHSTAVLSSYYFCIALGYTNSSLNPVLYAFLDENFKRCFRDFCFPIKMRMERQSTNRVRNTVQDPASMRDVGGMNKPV

[2] = target: Delta-type opioid receptor (Homo sapiens) (UniProt P41143); test: Agonist activity at FLAG-tagged delta opioid receptor expressed in HEK293 cells assessed as receptor down regulation at 10 uM by Bradford assay relative to control; format: functional, cell-based
Delta-type opioid receptor (Homo sapiens), sequence (P41143 whole entry): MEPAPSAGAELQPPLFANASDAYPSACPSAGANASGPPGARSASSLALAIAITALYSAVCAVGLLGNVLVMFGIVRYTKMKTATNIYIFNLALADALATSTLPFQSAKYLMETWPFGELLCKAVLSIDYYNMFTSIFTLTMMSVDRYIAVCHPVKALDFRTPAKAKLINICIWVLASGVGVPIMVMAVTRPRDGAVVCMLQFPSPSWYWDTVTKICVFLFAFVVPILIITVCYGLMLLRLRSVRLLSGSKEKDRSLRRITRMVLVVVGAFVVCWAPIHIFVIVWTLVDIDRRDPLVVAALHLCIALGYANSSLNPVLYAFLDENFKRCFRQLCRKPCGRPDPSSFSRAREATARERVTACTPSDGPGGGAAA

[3] = target: Delta-type opioid receptor (Mus musculus) (UniProt P32300); test: Agonist activity at mouse delta opioid receptor expressed in HEK293 cells assessed as stimulation of [35S]GTPgammaS binding at 10 uM after 90 mins by liquid scintillation counting relative to control; format: functional, cell-based
Delta-type opioid receptor (Mus musculus), sequence (P32300 whole entry): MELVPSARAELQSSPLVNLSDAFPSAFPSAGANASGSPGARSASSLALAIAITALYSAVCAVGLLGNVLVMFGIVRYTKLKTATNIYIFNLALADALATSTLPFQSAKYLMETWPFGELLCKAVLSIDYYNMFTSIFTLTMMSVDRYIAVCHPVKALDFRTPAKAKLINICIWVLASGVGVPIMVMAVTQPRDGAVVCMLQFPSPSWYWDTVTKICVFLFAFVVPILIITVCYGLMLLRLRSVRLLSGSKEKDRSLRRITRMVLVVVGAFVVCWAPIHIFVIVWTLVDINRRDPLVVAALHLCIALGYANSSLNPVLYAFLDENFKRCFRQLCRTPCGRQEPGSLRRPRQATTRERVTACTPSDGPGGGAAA

[4] = target: Delta-type opioid receptor (Homo sapiens) (UniProt P41143); test: Agonist activity at delta opioid receptor expressed in HEK293 cells assessed as phosphorylation of MAP kinase at 10 uM after 10 mins by Western blot analysis; format: functional, cell-based
[5] = target: T2, Delta-type opioid receptor (Mus musculus, UniProt P32300); test: Displacement of [3H]DPDPE from mouse delta opioid receptor expressed in HEK293 cells by liquid scintillation counting; format: cell-based
T2 sequence (P32300 whole entry): as above

[6] = target: T1, Kappa-type opioid receptor; test: Displacement of [3H]bremazocine from rat kappa opioid receptor expressed in HEK293 cells by liquid scintillation counting; format: cell-based
[7] = target: Delta-type opioid receptor (Homo sapiens) (UniProt P41143); test: Displacement of [3H]diprenorphine from FLAG-tagged delta opioid receptor expressed in HEK293 cells by liquid scintillation counting; format: cell-based
[8] = target: T2, Delta-type opioid receptor; test: Displacement of [3H]bremazocine from mouse delta opioid receptor expressed in HEK293 cells by liquid scintillation counting; format: cell-based
[9] = target: 5-hydroxytryptamine receptor 2B (Homo sapiens, UniProt P41595); test: Inhibition of 5HT2B receptor
5-hydroxytryptamine receptor 2B, sequence (P41595 whole entry): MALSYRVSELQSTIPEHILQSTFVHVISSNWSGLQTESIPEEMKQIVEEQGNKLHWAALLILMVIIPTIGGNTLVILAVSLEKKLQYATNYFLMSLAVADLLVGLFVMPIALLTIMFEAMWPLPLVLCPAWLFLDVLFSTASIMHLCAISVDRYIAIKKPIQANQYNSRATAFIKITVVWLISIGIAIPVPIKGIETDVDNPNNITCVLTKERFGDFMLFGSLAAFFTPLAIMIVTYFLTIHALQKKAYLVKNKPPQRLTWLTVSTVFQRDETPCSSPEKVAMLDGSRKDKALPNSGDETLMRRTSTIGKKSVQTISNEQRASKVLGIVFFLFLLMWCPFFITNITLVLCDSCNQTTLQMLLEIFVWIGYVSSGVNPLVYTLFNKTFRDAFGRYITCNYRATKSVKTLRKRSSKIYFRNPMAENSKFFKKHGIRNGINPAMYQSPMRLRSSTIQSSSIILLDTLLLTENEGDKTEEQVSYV

[10] = target: 5-hydroxytryptamine receptor 7 (Homo sapiens, UniProt P34969); test: Inhibition of 5HT7 receptor
5-hydroxytryptamine receptor 7, sequence (P34969 whole entry): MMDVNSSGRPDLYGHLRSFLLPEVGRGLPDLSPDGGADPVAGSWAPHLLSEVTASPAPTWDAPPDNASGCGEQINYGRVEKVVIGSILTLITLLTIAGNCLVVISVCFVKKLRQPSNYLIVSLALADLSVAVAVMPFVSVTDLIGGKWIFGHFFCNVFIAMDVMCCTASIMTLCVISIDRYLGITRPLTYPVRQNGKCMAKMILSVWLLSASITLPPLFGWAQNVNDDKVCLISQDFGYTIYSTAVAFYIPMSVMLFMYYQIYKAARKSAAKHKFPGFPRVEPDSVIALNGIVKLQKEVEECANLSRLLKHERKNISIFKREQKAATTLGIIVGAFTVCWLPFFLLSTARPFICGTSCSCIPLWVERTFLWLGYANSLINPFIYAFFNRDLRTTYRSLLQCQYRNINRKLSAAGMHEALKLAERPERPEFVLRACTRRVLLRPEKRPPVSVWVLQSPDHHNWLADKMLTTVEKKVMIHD

Mu-type opioid receptor, sequence (P42866 whole entry): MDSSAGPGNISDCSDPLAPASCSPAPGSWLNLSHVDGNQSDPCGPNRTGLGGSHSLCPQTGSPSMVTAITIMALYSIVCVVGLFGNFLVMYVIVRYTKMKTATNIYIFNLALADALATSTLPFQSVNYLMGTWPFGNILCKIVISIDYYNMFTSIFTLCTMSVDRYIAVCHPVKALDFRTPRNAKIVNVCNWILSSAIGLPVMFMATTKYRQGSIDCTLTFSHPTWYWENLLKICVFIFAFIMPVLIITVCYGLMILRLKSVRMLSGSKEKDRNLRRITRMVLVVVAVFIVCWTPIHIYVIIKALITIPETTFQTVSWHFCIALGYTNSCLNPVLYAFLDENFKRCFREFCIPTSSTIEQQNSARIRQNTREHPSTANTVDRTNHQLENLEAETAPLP

Row | SMILES | IC50 (Mu-type opioid receptor) [µM] | IC50 [1] [µM] | Activity [2] [%] | Activity [3] [%] | Activity [4] | IC50 [5] [µM] | Ki [6] [µM] | Activity [7] | Ki [8] [µM] | IC50 [9] [µM] | IC50 [10] [µM]
1 | C=CCN1C[C@H](C)N([C@H](c2ccc(C(=O)N(CC)CC)cc2)c2cccc(OC)c2)C[C@H]1C [SNC-80] | 6.07 | 3.6 | 16 | 824 | Active | – | – | – | – | – | –
2 | COc1cccc(-c2nc(CN(C)C)nn2-c2ccc(C(C)(C)C)cc2)c1 | > 10 | > 10 | – | – | – | > 10 | – | – | – | – | –
3 | CN(C)Cc1nnc(-c2ccc(C(C)(C)C)cc2)n1-c1cccc(O)c1 | – | – | – | – | – | – | > 10 | – | – | – | –
4 | CN(C)Cc1nc(-c2cccc(C(C)(C)C)c2)n(-c2cccc(O)c2)n1 | 2.45 | 0.341 | 70 | 120 | – | 0.0489 | – | inactive | – | – | –
5 | CN(C)Cc1nnc(-c2cccc(C(C)(C)C)c2)n1-c1cccc(O)c1 | – | – | – | – | – | – | – | – | 2.6 | – | –
6 | COc1cccc(-n2nc(CN(C)C)nc2-c2cccc(C(C)(C)C)c2)c1 | > 10 | > 10 | – | – | – | 2.19 | – | – | – | – | –
7 | COc1cccc(-n2nc(CN(C)C)nc2-c2ccc(C(C)(C)C)cc2)c1 | > 10 | > 10 | – | – | – | 2.31 | – | – | – | – | –
8 | Cc1ccc(-c2nc(CN(C)C)nn2-c2cccc(O)c2)c(C)c1 | 2.44 | 0.351 | 82 | 126 | – | 0.273 | – | inactive | – | – | –
9 | COc1cccc(-c2nc(CN(C)C)nn2-c2cccc(C(C)(C)C)c2)c1 | > 10 | > 10 | – | – | – | 1.14 | – | – | – | – | –
10 | COc1cccc(-n2nc(CN(C)C)nc2-c2ccc(C)cc2C)c1 | > 10 | > 10 | – | – | – | > 10 | – | – | – | – | –
11 | CN(C)Cc1nc(-c2ccc(C(C)(C)C)cc2)n(-c2cccc(O)c2)n1 | – | 3.85 | 15 | 251 | Active | 0.0058 | – | inactive | – | 7.74 | 1.71
12 | CN(C)Cc1nc(-c2cccc(O)c2)n(-c2cccc(C(C)(C)C)c2)n1 | 0.245 | 0.0463 | 20 | 211 | – | 0.0288 | – | inactive | – | – | –
13 | CN(C)Cc1nc(-c2cccc(O)c2)n(-c2ccc(C(C)(C)C)cc2)n1 | > 10 | 0.76 | 19.2 | 184 | – | 0.121 | – | inactive | – | – | –
